Reference: publication PMC8472287, “Betulinic Acid Decorated with Polar Groups and Blue Emitting BODIPY Dye: Synthesis, Cytotoxicity, Cell-Cycle Analysis and Anti-HIV Profiling” (Biomedicines, 2021)

Key:
[1] = test system: U2OS-Nuc cell line; test: Live cell imaging, pilot experiment; type: cell-based, human; details: 10 µM, 1 h incubation
Protocol: (§1) U2OS cell line (ATCC, USA) was transduced with premade lentiviral particles (Vectalis-TaKaRa, Japan) with sequences that express fluorescent protein tag mCherry targeted to specific subcellular locations. All cell lines were prepared according to the vendor’s instructions. The U2OS-Nuc cell line was prepared by using rLV.EF1.mCherry-Nuc-9 (cat. n. 0023VCT), containing a NLS sequence that imports protein into the nucleus. The U2OS-ER cell line was transduced by rLV.EF1.mCherry-ER-9 (cat. n. 0025VCT), which contains a calreticulin signal sequence and a KDEL sequence that associates protein with the endoplasmic reticulum. The U2OS-GA cell line was transduced by rLV.EF1.mCherry-Golgi-9 (cat. n. 0022VCT), containing a human GT precursor, a protein localized in Golgi Apparatus. The U2OS-Mito cell line was prepared by using rLV.EF1.mCherry-Mito-9 (cat. n. 0024VCT), containing a mitochondrial targeting sequence.
(§2) U2OS cells with fluorescent fusion proteins (density 1.0 × 10^3 per well) were seeded into 384 CellCarrier plates (Perkin Elmer, Waltham, MA, USA) and pre-incubated for 24 h at 37 °C and 5% CO2. The attached cells were treated with tested compounds in concentration 10 µM for 1 h and subsequently rinsed with fresh media. The live-cell imaging was performed by Cell Voyager CV7000 (Yokogawa, Tokyo, Japan) spinning disc confocal microscopy system at 37 °C in a 5% CO2 atmosphere. Live cells were monitored by a 60 × water immersion objective. The fluorescent signal was excited by lasers (405 nm and 561 nm) and the emission was filtered by bandpass filters (BP 445/45 and BP 595/20). All images were post-processed, and Pearson’s and Mander’s coefficients were calculated using the JACoP plugin in Image-J software.

[2] = test system: U2OS-ER, U2OS-Mito and U2OS-GA cell lines; test: Live cell colocalization experiments; type: cell-based, human; details: 10 µM, 1 h, Mander's coefficient
Protocol: as §1, §2

[3] = test system: CCRF-CEM; test: MTS cytotoxicity assay, CCRF-CEM; type: cell-based; details: Homo sapiens, 72 h, 3-day incubation
From the text: (§3) All cells (if not indicated otherwise) were purchased from the American Tissue Culture Collection (ATCC; Manassas, VA, USA). The highly chemosensitive CCRF-CEM line is derived from T lymphoblastic leukaemia, K562 represent cells of chronic myelogenous leukaemia. Colorectal adenocarcinoma HCT116 cell line and its p53 gene knockout counterpart (HCT116p53−/−, Horizon Discovery Ltd., Cambridge, UK) were used as models to assess the impact of p53 deficiency on cell line sensitivity. A549 cells are derived from lung adenocarcinoma and U2OS from human osteosarcoma. CEM-DNR and K562-Tax are well-characterized daunorubicin and paclitaxel-resistant sublines of CCRF-CEM and K562. The CEM-DNR resistant cells overexpress the P-glycoprotein and LRP protein, the K562-Tax overexpress P-glycoprotein but is losing the expression of LRP, which is present at parental K562 cell line. P-glycoprotein belongs to the ABC transporters’ family and is involved in the primary and acquired multidrug resistance phenomenon by the efflux of toxic compounds, LRP protein is involved in the lysosomal degradation. MRC-5 and BJ cell lines were used as a non-tumour control and represent human fibroblasts. The cells were maintained in Nunc/Corning 80 cm^2 plastic tissue culture flasks and cultured in cell culture medium according to ATCC or Horizon recommendations (DMEM/RPMI 1640 with 5 g/L-glucose, 2 mM glutamine, 100 U/mL penicillin, […] streptomycin, 10% fetal calf serum, and NaHCO3).
(§4) To perform the cytotoxicity MTS assay, cell suspensions were prepared and diluted according to the cell type and the expected target cell density (25,000–35,000 cells/mL) based on cell growth characteristics. Cells were added by an automatic pipettor (30 μL) into 384 well microtiter plates. All tested compounds were dissolved in 100% DMSO and four-fold dilutions of the intended test concentration were added in 0.15 μL aliquots at time zero to the microtiter plate wells by the echo-acoustic liquid handler Echo550 (Labcyte, San Jose, CA, USA). The experiments were performed in technical duplicates and at least three biological replicates. The cells were incubated with the tested compounds for 72 h at 37 °C, in a 5% CO2 atmosphere at 99% humidity. At the end of the incubation period, the cells were assayed by using the MTS test. Aliquots (5 µL) of the MTS stock solution were pipetted into each well and incubated for an additional 1–4 h. After this incubation period, the optical density (OD) was measured at 490 nm with an Envision microplate reader (Perkin Elmer, Waltham, Massachusetts, USA). Tumour cell survival (TCS) was calculated using the following equation: TCS = (ODdrug-exposed well/mean ODcontrol wells) × 100%.

[4] = test system: CEM-DNR; test: MTS cytotoxicity assay, CEM-DNR; type: cell-based; details: Homo sapiens, 72 h, CEM-DNR (daunorubicin resistant), 3-day incubation
From the text: as §3, §4

[5] = test system: K562; test: MTS cytotoxicity assay, K562; type: cell-based; details: Homo sapiens, 72 h, 3-day incubation
From the text: as §3, §4

[6] = test system: K562-Tax; test: MTS cytotoxicity assay, K562-Tax; type: cell-based; details: Homo sapiens, 72 h, K562-Tax (paclitaxel-resistant), 3-day incubation
From the text: as §3, §4

[7] = test system: A549; test: MTS cytotoxicity assay, A549; type: cell-based; details: Homo sapiens, 72 h, 3-day incubation
From the text: as §3, §4

[8] = test system: HCT116; test: MTS cytotoxicity assay, HCT116; type: cell-based; details: Homo sapiens, HCT-116, 72 h, 3-day incubation
From the text: as §3, §4

[9] = test system: HCT116p53−/−; test: MTS cytotoxicity assay, HCT116p53−/−; type: cell-based; details: Homo sapiens, HCT116-p53-null, 72 h, HCT116p53−/− (null p53 gene), 3-day incubation
From the text: as §3, §4

[10] = test system: U2OS; test: MTS cytotoxicity assay, U2OS; type: cell-based; details: Homo sapiens, 72 h, 3-day incubation
From the text: as §3, §4

[11] = test system: MRC-5; test: MTS cytotoxicity assay, MRC-5; type: cell-based; details: Homo sapiens, MRC5, 72 h, MRC-5 normal fibroblasts, 3-day incubation
From the text: as §3, §4

[12] = test system: BJ; test: MTS cytotoxicity assay, BJ; type: cell-based; details: Homo sapiens, 72 h, BJ normal fibroblasts, 3-day incubation
From the text: as §3, §4

[13] = test system: CCRF-CEM lymphoblasts; test: Cell cycle and apoptosis analysis (flow cytometry, propidium iodide); type: cell-based, human; details: 5 × IC50
Protocol: (§5) CCRF-CEM cells were seeded in 6-well plates at a density of 1 × 10^6/well. […] Cells were then harvested, washed with cold 1 × PBS and fixed in ice-cold 70% ethanol. Fixed cells were incubated overnight at −20 °C, washed in hypotonic citrate buffer, treated with RNase (50 μg mL^−1) and incubated with propidium iodide for 15 min. DNA content was analysed using Becton Dickinson flow cytometer and cell cycle data were analysed in the program ModFitLT (Verity, Carrollton, TX, USA). Apoptosis was measured in a logarithmic model expressing the percentage of the particles with propidium content lower than cells in G0/G1 phase (<G1) of the cell cycle. The mitotic marker pH3Ser10 antibody (Sigma) and secondary anti-mouse-FITC antibody (Sigma) were used for labelling and subsequent flow cytometry analysis of ethanol-fixed CCRF-CEM cells.

[14] = test system: CCRF-CEM lymphoblasts; test: Mitotic marker pH3Ser10 flow cytometry; type: cell-based, human; details: 5 × IC50
Protocol: as §5

[15] = test system: CCRF-CEM lymphoblasts; test: BrDU incorporation analysis (DNA synthesis); type: cell-based, human; details: 24 h incubation
Protocol: Cells were cultivated as in the method above and pulse-labelled with 10 μM 5-bromo-2-deoxyuridine (BrDU) for 30 min before collection to the test tubes. The cells were washed with cold 1 × PBS and fixed in ice-cold 70% ethanol. Before analysis, they were washed with 1 × PBS and incubated in 2M HCl for 30 min at room temperature. Following neutralization with 0.1M Na2B4O7 (borax), the cells were washed with 0.5% Tween-20 and 1% BSA in 1 × PBS. The cell pellets were stained using a primary anti-BrdU antibody (Exbio, Vestec, Czech Republic) for 30 min at room temperature and a secondary anti-mouse-FITC antibody (Sigma). The samples were then incubated with propidium iodide (0.1 mg mL^−1), treated with RNase A (0.5 mg mL^−1) for 1 h at room temperature in the dark and analysed as above.

[16] = test system: CCRF-CEM lymphoblasts; test: BrU incorporation analysis (RNA synthesis); type: cell-based, human; details: 24 h, 5 × IC50 (high concentration)
[17] = test system: VSV-G pseudotyped HIV-1 particles; test: microbe, parasite or virus in culture; type: cell-based; details: Human immunodeficiency virus 1, HEK293, 48 h, read-out: IC50i (50% infection inhibition)
[18] = test system: CA-SP1 processing of HIV-1 Gag polyprotein; test: Western blot of released virions with anti-HIV-1 CA antibody; type: cell-based
[19] = test system: entire cell line panel
[20] = in vitro; details: human

Compound | detection in living cells [1] | colocalization with cellular structures [2] | IC50 [3] [µM] | IC50 [4] [µM] | IC50 [5] [µM] | IC50 [6] [µM] | IC50 [7] [µM] | IC50 [8] [µM] | IC50 [9] [µM] | IC50 [10] [µM] | IC50 [11] [µM] | IC50 [12] [µM] | increase of the percentage of cells in the S-phase compared to untreated control [13] | rate of cell division by mitotic marker pH3Ser10 (in words) [14] | fraction of proliferating BrDU positive CCRF-CEM cells (in words) [15] | RNA synthesis by BrU (in words) [16] | IC50 [17] [µM] | CA forms identified in released viruses (CA-SP1 processing) [18] | cytotoxic effect in the cell line panel (in words) [19] | IC50 [20] [µM]
NCCCNC1=C2C=CC=[N+]2[B-](F)(F)n2cccc21 [BODIPY-NH2, 8-N-(3-Aminopropyl)amino-4,4-difluoro-4-bora-3a,4a-diaza-s-indacene] | not detected |  |  |  |  |  |  |  |  |  |  |  |  |  |  |  |  |  |  | 
CSC1=C2C=CC=[N+]2[B-](F)(F)n2cccc21 [BODIPY-SMe, 8-thiomethyl BODIPY, reference compound] | penetrate cell compartments | perfect colocalization in all studied cell lines |  |  |  |  |  |  |  |  |  |  |  |  |  |  |  |  |  | 
C=C(C)[C@@H]1CC[C@]2(C(=O)NCCCN=[N+]=[N-])CC[C@]3(C)[C@H](CC[C@@H]4[C@@]5(C)CC[C@H](OC(=O)CC(C)(C)C(=O)O)C(C)(C)[C@@H]5CC[C@]43C)[C@@H]12 [Compound 2, 4-{[(3β)-28-[(3-Azidopropyl)amino]-28-oxolup-20(29)-ene-3-yl]oxy}-2,2-dimethyl-4-oxo-butanoic acid] |  |  | 8.14 | 10.2 | 26 | 15.9 | 22.9 | 19.4 | 29.2 | 22.2 | 24.2 | 25.3 | about 50% | low rate of cell division | increased the percentage of cells incorporating BrDU | stalled RNA synthesis | 11.7 | not only fully processed p24 CA, but also p25 CA-SP1 protein | medium cytotoxicity | 36.4
C=C(C)[C@@H]1CC[C@]2(C(=O)NCCCNC3=C4C=CC=[N+]4[B-](F)(F)n4cccc43)CC[C@]3(C)[C@H](CC[C@@H]4[C@@]5(C)CC[C@H](O)C(C)(C)[C@@H]5CC[C@]43C)[C@@H]12 [Compound 4, (3β)-N-[N’-(4,4-Difluoro-4-bora-3a,4a-diaza-s-indacene-8-yl)-3-aminopropyl]-3-hydroxylup-20(29)-ene-28-amide] | detected in living cells | almost perfectly label mitochondria and endoplasmic reticulum | 23.7 | > 50 | > 50 | > 50 | > 50 | > 50 | > 50 | > 50 | > 50 | > 50 |  |  |  |  | 44.1 | Only completely processed p24 CA | inactive | > 40
C=C(C)[C@@H]1CC[C@]2(C(=O)N3CCN(CCNC(=O)OC(C)(C)C)CC3)CC[C@]3(C)[C@H](CC[C@@H]4[C@@]5(C)CC[C@H](OC(C)=O)C(C)(C)[C@@H]5CC[C@]43C)[C@@H]12 [Compound 12, (3β)-28-(4-{2-[(Tert-butoxycarbonyl)amino]ethyl}piperazine-1-yl)-28-oxolup-20(29)-ene-3-yl acetate] |  |  | 9.62 | > 50 | > 50 | > 50 | > 50 | > 50 | > 50 | > 50 | > 50 | > 50 | about 50% | low rate of cell division | increased the percentage of cells incorporating BrDU |  | 31.9 | Only completely processed p24 CA | inactive | > 40
